This passage reports viability, T/C and IC50 results from PubChem BioAssay AID1963841 (Molecular Pharmacology Branch, DTP, NCI, 2024).

The structures appear in SMILES notation. Several values for one entry are separate records, joined by “and”; a condition that tells them apart may be missing. Equal values may be shown once.

The experiment deals with 439559-082-T-J2-PDC spheroid viability. Nature of the experiment: Anticancer human tumor 439559-082-T-J2-PDC patient-derived colon adenocarcinoma cell line growth inhibition [POLQ]. The following applies: spheroids with HUVEC and MSC; for viability, T/C: stronger effect = lower value. The protocol:
Multicellular complex tumor spheroid response to Polymerase (POL) inhibitors (novobiocin, ART-558, RP6685) in combination with a variety of drugs and investigational agents in selected tumor cell lines
The POL inhibitors (novobiocin, ART-558, and RP6685) were evaluated both individually and in combination with standard of care and investigational anticancer small molecules within a complex spheroid model of solid tumors. . Complex spheroids include a stromal component modeled by human endothelial cells (HUVEC) and fibroblasts modeled by human mesenchymal stem cells (MSCs). The concentration ranges selected for each drug and investigational agent were based upon clinically achievable concentrations if the clinical Cmax of the agent was known.
Compounds. The drugs and investigational agents: novobiocin (NSC847541), ART-558 (NSC835418), RP-6685 (NSC848927), peposertib (NSC802822), ceralasertib (NSC780249), elimusertib (NSC800525), camonsertib (NSC841442), AZD-1390 (NSC803789), olaparib (NSC753686), talazoparib (NSC767125), rucaparib (NSC756644), sotorasib (NSC818433), MRTX-1133 (NSC836407), SN-38 (NSC673596), topotecan (NSC609699), epotoside (NSC141540), doxorubicin (NSC123127), gemcitabine (NSC613327), 5-fluorouracil (NSC19893), paclitaxel (NSC125973), vemurafenib (NSC761431), MSA-2 (NSC828583), SN-011 (NSC837082), adavosertib (NSC754352), prexasertib (NSC758257), carboplatin (NSC241240) and oxaliplatin (NSC266046), were obtained from the National Cancer Institute (NCI) Developmental Therapeutics Program Chemical Repository (21). The FDA-approved anticancer drug set is available from the Developmental Therapeutics Program at https://dtp.cancer.gov/organization/dscb/obtaining/. […] The stock solutions were prepared in dimethyl sulfoxide (DMSO, Sigma-Aldrich, St. Louis, MO, cat. D2650), except for the platinum compounds which were prepared in saline (Quality Biological, Gaithersburg, MD, cat. 114-055-101), at 800-fold the tested concentration and stored at -70 degrees C prior to their use. All drugs and investigational agents were tested over a range starting from a high concentration at or near the clinical Cmax and decreasing in half-log increments. If the clinical Cmax for an agent had not been determined, the highest concentration tested was 10 microM, except for SN-38, which was tested at a high concentration of 1 microM.
Cell Culture. All cells were maintained in an incubator at 37 degrees C and 5% CO2 with 95% humidity. The PDC lines were cultured according to standard operating procedures established by the NCI PDMR (https://pdmr.cancer.gov). Table 3 of the manuscript, lists the cell lines along with the number of the three cell types plated to form the mct-spheroids and media for tumor cell growth. After thawing, all PDC lines, except 997537-175-T-J1-PDC and 415267-285-R-J2-PDC, were cultured in Matrigel-coated flasks prepared with a working solution of 1X Ham's F-12 nutrient mix, without supplementation (Thermo Fisher Scientific, cat. 11765054), 100 U/mL penicillin-streptomycin (Thermo Fisher Scientific, cat. 15140122), and 2.5% Matrigel (Corning Inc., Corning, NY, cat. 354248) for the first three passages. The two PDC lines 997537-175-T-J1-PDC and 415267-285-R-J2-PDC were cultured on uncoated flasks. The 857933-349-R-J2-PDC line was cultured in 6C/Colon 1B media containing advanced DMEM/F-12 (Thermo Fisher Scientific, cat. 12634028), 10 mM HEPES (Thermo Fisher Scientific, cat. 15630080), 1X GlutaMAX supplement (Thermo Fisher Scientific, cat. 35050061), 0.1 mg/mL primocin (InvivoGen, San Diego, CA, cat. ant-pm-2), 10% defined fetal bovine serum, heat inactivated (HyClone Laboratories Inc., Logan, UT, cat. SH30070.03HI), 50% L-WRN conditioned media (ATCC, cat. CRL-3276), 1.25 mM N-Acetyl-L-cysteine (Sigma-Aldrich, cat. A9165), 10 mM nicotinamide (Sigma-Aldrich, cat. N0636), 1X B-27 supplement (Thermo Fisher Scientific, cat. 17504044), 1X N-2 supplement (Thermo Fisher Scientific, cat. […]

[1] abbreviates: compound alone, run of 11/27/2023.
Where [2] appears, read: compound alone, run of 12/05/2023.
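Note: spheroids exposed to compounds for seven days before readout.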

The viability, T/C is the result in the treated group divided by that in the control group, in per cent. A word on the IC50: it is the concentration needed to halve the response being measured. Take `C=CCn1c(=O)c2cnc(Nc3ccc(N4CCN(C)CC4)cc3)nc2n1-c1cccc(C(C)(C)O)n1`: the viability, T/C runs as follows: (compound 0.00316 µM) 97.3% and 99% and 101%; (compound 0.01 µM) 93.6% and 96.3% and 96.2%; (compound 0.0316 µM) 98.5% and 99.2% and 89.3%; (compound 0.1 µM) 97.7% and 104% and 90.1%; (compound 0.316 µM) 99.3% and 97.5% and 91.7%; (compound 1 µM) 81.2% (2×) and 83.4%. For the same compound, the IC50 (curve of compound) is over 1000 nM.
Consider `CC[C@@]1(O)C(=O)OCc2c1cc1n(c2=O)Cc2cc3c(CN(C)C)c(O)ccc3nc2-1`, for which the viability, T/C (compound 0.000316 µM) was 102% and 87.1% and 100%; the viability, T/C (compound 0.001 µM) was 101% and 94.2% and 99%; the viability, T/C (compound 0.00316 µM) was 100% and 111% and 96.2%; the viability, T/C (compound 0.01 µM) was 92.8% and 100% and 106%; the viability, T/C (compound 0.0316 µM) is 95.1% and 96.1% and 93.2%; the viability, T/C (compound 0.1 µM) is 88.2% and 77.2% and 75.9%. For the same compound, the IC50 (curve of compound) was over 100 nM.
`CCc1c2c(nc3ccc(O)cc13)-c1cc3c(c(=O)n1C2)COC(=O)[C@]3(O)CC`: the viability, T/C runs as follows: (compound 0.00316 µM) 95.8% and 83.5% and 94.6%; (compound 0.01 µM) 85% and 74.5% and 81%; (compound 0.0316 µM) 71.9% and 75.1% and 71.4%; (compound 0.1 µM) 72.1% and 79.6% and 64.2%; (compound 0.316 µM) 63.3% and 81% and 57.8%; (compound 1 µM) 40.5% and 58.2% and 35.7%. In addition, for the setting “curve of compound”, the IC50 was 627 nM and > 1000 nM and 375 nM.
For `COC1C(OC(N)=O)C(O)C(Oc2ccc3c(O)c(NC(=O)c4ccc(O)c(CC=C(C)C)c4)c(=O)oc3c2C)OC1(C)C` (configuration not stated), the viability, T/C (compound 0.0316 µM) was 102% [middle of 13 runs]; the viability, T/C (compound 0.1 µM) is 96.7% [middle of 13 runs]; the viability, T/C (compound 0.316 µM) was 101% [middle of 13 runs]; the viability, T/C (compound 1 µM) was 101% [middle of 13 runs]; the viability, T/C (compound 3.16 µM) was 100% [middle of 12 runs]; the viability, T/C (compound 10 µM) was 105% [middle of 13 runs]. The IC50 under setting [1] was over 10000 nM.
`COc1cc(C2c3cc4c(cc3C(OC3OC5COC(C)OC5C(O)C3O)C3COC(=O)C23)OCO4)cc(OC)c1O` (configuration not stated): the viability, T/C is, setting by setting: (compound 0.0316 µM) 92.4% and 99.3% and 94.1%; (compound 0.1 µM) 95.6% and 95.3% and 97.8%; (compound 0.316 µM) 92.7% and 82% and 98.2%; (compound 1 µM) 90.5% and 88.4% and 95.4%; (compound 3.16 µM) 82.1% and 81.8% and 89.5%; (compound 10 µM) 73.7% and 72.7% and 70.3%. Further, the IC50 (curve of compound) is over 10000 nM.
With `COc1cccc(OCCCN)c1-c1cc(Nc2cnc(C#N)cn2)n[nH]1`, the viability, T/C reads like this: (compound 0.00316 µM) 99.5% and 95.1% and 102%; (compound 0.01 µM) 88.5% and 89.2% and 81.1%; (compound 0.0316 µM) 73.2% and 77.3% and 77.8%; (compound 0.1 µM) 55.3% and 76.4% and 78.8%; (compound 0.316 µM) 30.3% and 45.7% and 50.2%; (compound 1 µM) 18.1% and 20.9% and 23%. Also, under “curve of compound”, the IC50 was 118 nM and 296 nM and 345 nM.
Turning to `COc1cccc2c1C(=O)c1c(O)c3c(c(O)c1C2=O)CC(O)(C(=O)CO)CC3OC1CC(N)C(O)C(C)O1` (configuration not stated), the viability, T/C was 94.9% and 90.3% and 99.1% (compound 0.0316 µM); 86.6% and 79.9% and 96.6% (compound 0.1 µM); 79.8% and 66.8% and 88% (compound 0.316 µM); 72.6% and 63.7% and 70.9% (compound 1 µM); 65% and 58.3% and 60.4% (compound 3.16 µM); 52.5% and 69.4% and 49.1% (compound 10 µM). For the setting “curve of compound”, the IC50 was > 10000 nM and 9810 nM.
For `Cc1cccc(N(C)C(=O)C2C(O)CCN2c2nc(C)cc(C(F)(F)F)c2C#N)c1` (configuration not stated), the viability, T/C reads like this: (compound 0.0316 µM) 98.9% [middle of 12 runs]; (compound 0.1 µM) 95.7% [middle of 12 runs]; (compound 0.316 µM) 97.4% [middle of 12 runs]; (compound 1 µM) 98.2% [middle of 12 runs]; (compound 3.16 µM) 97% [middle of 12 runs]; (compound 10 µM) 101% [middle of 12 runs]. The IC50 runs as follows: under setting [1], over 10000 nM; under setting [2], over 10000 nM.
`Cn1ncnc1[C@H]1c2n[nH]c(=O)c3cc(F)cc(c23)N[C@@H]1c1ccc(F)cc1`: the viability, T/C is, setting by setting: (compound 0.000316 µM) 101% and 102% and 94.5%; (compound 0.001 µM) 100% (2×) and 86.2%; (compound 0.00316 µM) 94.4% and 97.9% and 97.8%; (compound 0.01 µM) 96.7% and 93.2% and 100%; (compound 0.0316 µM) 97.2% and 98.5% and 107%; (compound 0.1 µM) 97.3% and 95.7% and 88.3%. Besides, the IC50 (curve of compound) is over 100 nM.
As to `Nc1ccc(C#CCN(C(=O)Cc2ncc(C(F)(F)F)cc2C(F)(F)F)c2ccc(F)cc2)nn1`, the viability, T/C (compound 0.0316 µM) is 96.1% [middle of 13 runs]; the viability, T/C (compound 0.1 µM) is 97.8% [middle of 13 runs]; the viability, T/C (compound 0.316 µM) is 96% [middle of 13 runs]; the viability, T/C (compound 1 µM) was 100% [middle of 13 runs]; the viability, T/C (compound 3.16 µM) is 99.5% [middle of 13 runs]. In addition, under setting [2], the IC50 was over 10000 nM.
Turning to `O=c1[nH]cc(F)c(=O)[nH]1`, the viability, T/C (compound 0.0316 µM) is 94.6% and 117% and 96.9%; the viability, T/C (compound 0.1 µM) was 95% and 114% and 94.2%; the viability, T/C (compound 0.316 µM) is 83.6% and 86.3% and 81%; the viability, T/C (compound 1 µM) was 76.2% and 90.7% and 73%; the viability, T/C (compound 3.16 µM) is 71.1% and 87% and 72.8%; the viability, T/C (compound 10 µM) is 68.4% and 78.9% and 71.5%. In addition, the IC50 (curve of compound) is over 10000 nM.
